Results as given in patent US12371428B2 (Exelixis, Inc., priority 2019, dated 2025).
Where a name gives a salt, the structure may show the parent alone.

Columns and labels:
[1] = target: Met (phospho-Met, HGF-stimulated PC-3 prostate cancer cells) (Homo sapiens (Human), UniProt P08581); test: Met autophosphorylation ELISA in PC-3 cells (Example F); format: cell-based; conditions: cellular activity; Met autophosphorylation ELISA in PC-3 cells; read-out: c-Met IC50
In short: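 Serum-starved (3 h) PC-3 cells were treated 1 h with compounds (8-point curve, 0.3% DMSO), then stimulated with 100 ng/mL human HGF for 10 min. Lysate phospho-Met (panTyr) was measured by sandwich ELISA, normalised to DMSO and reference-inhibitor controls. IC50 came from 4-parameter logistic fit.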

[2] = target: Human MET (residues 956-1390) (Homo sapiens (Human), UniProt P08581); test: Human Met kinase assay, HTRF KinEase (Example D-2); format: biochemical; conditions: protocol of Example D-2; read-out: c-Met IC50
In short: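 MET kinase domain (956-1390), 0.1 ng/well, in buffer with 5 mM MgCl2, 1 mM DTT and 1 mM MnCl2, phosphorylated a biotinylated peptide at ATP Km for 40 min at RT; 10 concentrations, 3% DMSO final. EDTA-stopped HTRF read after 60 min; IC50 from a 4-parameter logistic fit.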

Chain of Human MET (residues 956-1390) (P08581 956-1390): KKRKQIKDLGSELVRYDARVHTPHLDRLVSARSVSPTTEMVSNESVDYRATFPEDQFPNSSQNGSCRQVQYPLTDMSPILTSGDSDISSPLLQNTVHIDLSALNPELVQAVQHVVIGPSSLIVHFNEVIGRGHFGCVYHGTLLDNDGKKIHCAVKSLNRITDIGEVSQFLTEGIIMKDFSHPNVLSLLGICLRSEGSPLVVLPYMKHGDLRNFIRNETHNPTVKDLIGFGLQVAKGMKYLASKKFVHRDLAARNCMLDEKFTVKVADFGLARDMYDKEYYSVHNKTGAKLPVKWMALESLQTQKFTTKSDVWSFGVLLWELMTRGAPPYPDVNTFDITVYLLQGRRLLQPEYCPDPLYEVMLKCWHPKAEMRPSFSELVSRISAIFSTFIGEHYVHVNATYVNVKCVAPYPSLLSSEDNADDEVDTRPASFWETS
Chain of Met (phospho-Met, HGF-stimulated PC-3 prostate cancer cells) (P08581 25-1390): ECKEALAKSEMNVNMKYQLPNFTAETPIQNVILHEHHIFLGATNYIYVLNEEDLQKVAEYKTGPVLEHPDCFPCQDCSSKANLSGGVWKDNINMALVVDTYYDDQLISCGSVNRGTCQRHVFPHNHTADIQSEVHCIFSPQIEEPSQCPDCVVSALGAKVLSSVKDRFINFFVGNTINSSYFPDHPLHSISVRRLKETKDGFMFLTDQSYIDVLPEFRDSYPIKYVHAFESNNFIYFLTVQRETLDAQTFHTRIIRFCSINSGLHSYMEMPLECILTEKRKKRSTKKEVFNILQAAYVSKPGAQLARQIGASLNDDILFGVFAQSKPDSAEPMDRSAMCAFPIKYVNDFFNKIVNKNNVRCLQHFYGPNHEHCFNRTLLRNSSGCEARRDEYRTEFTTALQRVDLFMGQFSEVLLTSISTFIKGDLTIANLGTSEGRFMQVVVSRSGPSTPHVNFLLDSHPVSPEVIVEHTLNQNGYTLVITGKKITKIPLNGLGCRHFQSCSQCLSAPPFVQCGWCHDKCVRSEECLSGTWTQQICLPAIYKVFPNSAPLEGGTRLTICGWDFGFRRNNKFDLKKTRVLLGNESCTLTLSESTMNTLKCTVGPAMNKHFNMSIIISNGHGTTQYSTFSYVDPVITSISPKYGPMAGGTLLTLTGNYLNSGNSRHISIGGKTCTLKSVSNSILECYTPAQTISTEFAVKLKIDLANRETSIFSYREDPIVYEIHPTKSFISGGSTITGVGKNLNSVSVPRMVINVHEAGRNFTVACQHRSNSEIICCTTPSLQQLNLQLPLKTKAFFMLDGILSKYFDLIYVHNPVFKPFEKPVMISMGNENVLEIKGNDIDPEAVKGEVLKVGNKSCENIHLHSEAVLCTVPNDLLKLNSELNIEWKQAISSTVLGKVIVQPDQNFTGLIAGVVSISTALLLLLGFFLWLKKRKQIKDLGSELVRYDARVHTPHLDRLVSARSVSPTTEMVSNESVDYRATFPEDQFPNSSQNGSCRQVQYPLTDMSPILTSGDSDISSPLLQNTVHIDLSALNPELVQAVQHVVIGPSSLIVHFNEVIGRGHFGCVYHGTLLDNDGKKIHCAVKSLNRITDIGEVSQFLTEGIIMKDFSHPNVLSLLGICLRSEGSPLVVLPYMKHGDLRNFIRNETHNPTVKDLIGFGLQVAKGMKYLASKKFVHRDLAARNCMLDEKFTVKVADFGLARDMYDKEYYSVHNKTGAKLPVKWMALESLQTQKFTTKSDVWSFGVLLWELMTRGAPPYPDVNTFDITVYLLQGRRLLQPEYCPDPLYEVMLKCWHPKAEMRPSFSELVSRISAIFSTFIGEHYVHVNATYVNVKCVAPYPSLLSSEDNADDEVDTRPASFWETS

IC50 [1] [nM]	IC50 [2] [nM]	SMILES
< 100	< 100	Cc1ncc(C(=O)Nc2ccc(Oc3ccnc4cc(C(C)C)cnc34)cc2)c(O)c1-c1ccc(F)cc1 [Compound 594, 5-(4-Fluorophenyl)-4-hydroxy-6-methyl-N-[4-[(7-propan-2-yl-1,5-naphthyridin-4-yl)oxy]phenyl]pyridine-3-carboxamide]
< 100	< 100	Cc1ncc(C(=O)Nc2ccc(Oc3ccnc4cc(C(C)C)cnc34)c(F)c2)c(O)c1-c1ccc(F)cc1 [Compound 596, 5-(4-Fluorophenyl)-N-[3-fluoro-4-[(7-propan-2-yl-1,5-naphthyridin-4-yl)oxy]phenyl]-4-hydroxy-6-methylpyridine-3-carboxamide]
< 100	< 100	Cc1ncc(C(=O)Nc2ccc(Oc3ccnc4cc(-c5cnn(C(F)F)c5)cnc34)c(F)c2)c(O)c1-c1ccc(F)cc1 [Compound 610, N-[4-[[7-[1-(Difluoromethyl)pyrazol-4-yl]-1,5-naphthyridin-4-yl]oxy]-3-fluorophenyl]-5-(4-fluorophenyl)-4-hydroxy-6-methylpyridine-3-carboxamide hydrochloride]
< 100	< 100	Cc1ncc(C(=O)Nc2ccc(Oc3ccnc4cc(-c5cnn(C(F)F)c5)cnc34)cc2)c(O)c1-c1ccc(F)cc1 [Compound 611, N-[4-[[7-[1-(Difluoromethyl)pyrazol-4-yl]-1,5-naphthyridin-4-yl]oxy]phenyl]-5-(4-fluorophenyl)-4-hydroxy-6-methylpyridine-3-carboxamide]

Second part, the molecule before the results:

SMILES	IC50 [1] [nM]	IC50 [2] [nM]
COc1cnc2c(Oc3ccc(NC(=O)c4cn(C)c(C#N)c(-c5ccc(F)cc5)c4=O)cc3F)ccnc2c1 [Compound 586, 6-Cyano-N-[3-fluoro-4-[(7-methoxy-1,5-naphthyridin-4-yl)oxy]phenyl]-5-(4-fluorophenyl)-1-methyl-4-oxopyridine-3-carboxamide]	100 to 300	< 100
COc1cnc2c(Oc3ccc(NC(=O)c4cn(C)c(OC)c(-c5ccc(F)cc5)c4=O)cc3F)ccnc2c1 [Compound 587, N-[3-Fluoro-4-[(7-methoxy-1,5-naphthyridin-4-yl)oxy]phenyl]-5-(4-fluorophenyl)-6-methoxy-1-methyl-4-oxopyridine-3-carboxamide]	< 100	< 100
CCc1nc2c(Oc3ccc(NC(=O)c4cn(C(C)C)c(C)c(-c5ccc(F)cc5)c4=O)cc3F)ccnc2cc1OC [Compound 588, N-[4-[(6-Ethyl-7-methoxy-1,5-naphthyridin-4-yl)oxy]-3-fluorophenyl]-5-(4-fluorophenyl)-6-methyl-4-oxo-1-propan-2-ylpyridine-3-carboxamide]	< 100	< 100
CCc1nc2c(Oc3ccc(NC(=O)c4cnc(C)c(-c5ccc(F)cc5)c4O)cc3F)ccnc2cc1OC [Compound 589, N-[4-[(6-Ethyl-7-methoxy-1,5-naphthyridin-4-yl)oxy]-3-fluorophenyl]-5-(4-fluorophenyl)-4-hydroxy-6-methylpyridine-3-carboxamide]	< 100	< 100
Cc1cc(F)ccc1-c1c(C)ncc(C(=O)Nc2ccc(Oc3ccnc4cc(C(C)C)cnc34)c(F)c2)c1O [Compound 593, 5-(4-Fluoro-2-methylphenyl)-N-[3-fluoro-4-[(7-propan-2-yl-1,5-naphthyridin-4-yl)oxy]phenyl]-4-hydroxy-6-methylpyridine-3-carboxamide]	< 100	100 to 300
Cc1nc(C)c(-c2ccc(F)cc2)c(O)c1C(=O)Nc1ccc(Oc2ccnc3cc(C(C)C)cnc23)c(F)c1 [Compound 595, 5-(4-Fluorophenyl)-N-[3-fluoro-4-[(7-propan-2-yl-1,5-naphthyridin-4-yl)oxy]phenyl]-4-hydroxy-2,6-dimethylpyridine-3-carboxamide]	< 100	100 to 300
Cc1nc(C)c(-c2ccc(F)cc2)c(O)c1C(=O)Nc1ccc(Oc2ccnc3cc(C(C)C)cnc23)cc1 [Compound 598, 5-(4-Fluorophenyl)-4-hydroxy-2,6-dimethyl-N-[4-[(7-propan-2-yl-1,5-naphthyridin-4-yl)oxy]phenyl]pyridine-3-carboxamide]	< 100	< 100
